Reference: patent US10112937B2, “P2X7 modulators and methods of use” (Janssen Pharmaceutica NV, priority 2013, dated 2018)
pIC50: −log10 of the molar value.

Experiments:
Assay type in all cases: cell-based
[1] = biological target: rat P2X7 (Rattus norvegicus (Rat), UniProt Q64663); experiment: Ca2+ flux (FLIPR) in 1321N1 cells expressing recombinant rat P2X7;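 note: Calcium-4 dye fluorescence change read 180 s after agonist addition, with cells preincubated 30 min with compound and dye in 96-well plates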
[2] = biological target: T1, human P2X7 (Homo sapiens (Human), UniProt Q99572); experiment: P2X7 antagonism in human PBMCs (IL-1β release after LPS + Bz-ATP, ELISA); settings: human PBMCs; for PBMC 1 μM (% control): test compound 1 μM
[3] = biological target: T1, human P2X7; experiment: Ca2+ flux (FLIPR) in 1321N1 cells expressing recombinant human P2X7; settings: 1321N1 cells, recombinant human P2X7, 250 μM BzATP;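 note: cells loaded with Calcium-4 dye, preincubated with test compound for 30 min, fluorescence change read 180 s after agonist addition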
Experimental: P2X7 Antagonism in Recombinant Human P2X7 Cells or Recombinant Rat P2X7 Cells: (a) Ca^2+ Flux and (b) Radioligand Binding
1321N1 cells expressing the recombinant human or rat P2X7 channel was cultured in HyQ DME/(HyClone/Dulbecco's Modified Eagle Medium) high glucose supplemented with 10% Fetal Bovine Serum (FBS) and appropriate selection marker. Cells were seeded at a density of 25000 cells/well (96-well clear bottom black walled plates) in 100 μl volume/well. On the day of the experiment, cell plates were washed with assay buffer, containing (in mM): 130 NaCl, 2 KCl, 1 CaCl2, 1 MgCl2, 10 HEPES, 5 glucose; pH 7.40 and 300 mOs. After the wash, cells were loaded with the Calcium-4 dye (Molecular Device) and incubated in the dark for 60 minutes. Test compounds were prepared at 250× the test concentration in neat DMSO. Intermediate 96-well compound plates were prepared by transferring 1.2 μL of the compound into 300 μL of assay buffer. A further 3× dilution occurred when transferring 50 μL/well of the compound plate to 100 μL/well in the cell plate. Cells were incubated with test compounds and dye for 30 minutes. […] The fluorescence change was measured 180 seconds after adding the agonist.

[4] = 1321N1 cells, recombinant rat P2X7, 250 μM BzATP

T1 sequence (Q99572 whole entry): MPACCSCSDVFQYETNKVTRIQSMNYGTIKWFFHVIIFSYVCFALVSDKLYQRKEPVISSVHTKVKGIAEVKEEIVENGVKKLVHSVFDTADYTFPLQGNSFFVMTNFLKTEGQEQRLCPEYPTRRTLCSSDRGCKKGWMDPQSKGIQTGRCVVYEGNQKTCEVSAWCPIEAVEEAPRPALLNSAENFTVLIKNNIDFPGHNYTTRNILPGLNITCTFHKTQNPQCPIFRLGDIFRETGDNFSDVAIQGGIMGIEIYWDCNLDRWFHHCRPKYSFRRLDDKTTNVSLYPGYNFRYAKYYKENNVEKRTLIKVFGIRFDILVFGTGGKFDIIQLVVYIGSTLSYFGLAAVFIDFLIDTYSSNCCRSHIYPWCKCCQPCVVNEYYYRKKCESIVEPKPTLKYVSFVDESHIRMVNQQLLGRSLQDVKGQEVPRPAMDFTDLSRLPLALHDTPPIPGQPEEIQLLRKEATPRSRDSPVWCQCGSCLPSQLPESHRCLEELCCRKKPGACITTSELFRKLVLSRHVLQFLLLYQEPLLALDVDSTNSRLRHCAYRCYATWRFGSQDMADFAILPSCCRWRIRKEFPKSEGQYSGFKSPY
rat P2X7, sequence (Q64663 whole entry): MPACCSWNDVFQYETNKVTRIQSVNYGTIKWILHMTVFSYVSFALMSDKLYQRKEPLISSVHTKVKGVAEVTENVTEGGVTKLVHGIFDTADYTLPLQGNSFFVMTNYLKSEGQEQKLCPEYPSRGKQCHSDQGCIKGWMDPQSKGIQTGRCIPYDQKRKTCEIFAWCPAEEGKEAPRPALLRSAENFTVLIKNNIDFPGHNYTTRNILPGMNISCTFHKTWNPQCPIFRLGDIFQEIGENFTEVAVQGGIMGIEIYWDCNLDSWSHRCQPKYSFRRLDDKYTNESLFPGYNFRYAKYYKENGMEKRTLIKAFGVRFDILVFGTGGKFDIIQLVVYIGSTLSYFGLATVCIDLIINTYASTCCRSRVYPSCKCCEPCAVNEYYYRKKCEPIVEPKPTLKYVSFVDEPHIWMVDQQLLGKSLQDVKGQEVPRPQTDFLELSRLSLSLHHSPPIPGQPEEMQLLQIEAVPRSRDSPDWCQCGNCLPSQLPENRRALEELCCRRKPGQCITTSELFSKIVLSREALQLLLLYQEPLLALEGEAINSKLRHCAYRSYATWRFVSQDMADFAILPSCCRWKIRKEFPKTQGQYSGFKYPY

| Structure (SMILES) | pIC50 [1, 4] | PBMC 10 μM (% control) ([2]; test compound 10 μM) | pIC50 [3] | further results |
| --- | --- | --- | --- | --- |
| O=C(c1cccc(C(F)(F)F)c1Cl)N1CCc2c(ncn2-c2ccccn2)C1 [Example 1, (2-Chloro-3-(trifluoromethyl)phenyl)(1-(pyridin-2-yl)-6,7-dihydro-1H-imidazo[4,5-c]pyridin-5(4H)-yl)methanone] | – | – | 8.39 | – |
| CCC1c2ncn(-c3cnccn3)c2CCN1C(=O)c1cccc(C(F)(F)F)c1Cl (stereo not drawn) [Example 15, (2-Chloro-3-(trifluoromethyl)phenyl)(4-ethyl-1-(pyrazin-2-yl)-6,7-dihydro-1H-imidazo[4,5-c]pyridin-5(4H)-yl)methanone] | – | – | 7.09 | PBMC 1 μM (% control) [2]: 9.1 % control |
| CC1c2ncn(-c3ncccc3F)c2CCN1C(=O)c1cccc(C(F)(F)F)c1Cl (stereo not drawn) [Example 21, (2-Chloro-3-(trifluoromethyl)phenyl)(1-(3-fluoropyridin-2-yl)-4-methyl-6,7-dihydro-1H-imidazo[4,5-c]pyridin-5(4H)-yl)methanone] | – | 1.6 | 7.05 | – |
| CC1c2ncn(-c3ncccn3)c2CCN1C(=O)c1cccc(C(F)(F)F)c1Cl (stereo not drawn) [Example 23, (2-Chloro-3-(trifluoromethyl)phenyl)(4-methyl-1-(pyrimidin-2-yl)-6,7-dihydro-1H-imidazo[4,5-c]pyridin-5(4H)-yl)methanone] | 6.95 | 6.4 | – | – |
| CCOC(=O)C1c2ncn(-c3ccccn3)c2CCN1C(=O)c1cccc(Cl)c1Cl (stereo not drawn) [Example 25, Ethyl 5-(2,3-dichlorobenzoyl)-1-(pyridin-2-yl)-4,5,6,7-tetrahydro-1H-imidazo[4,5-c]pyridine-4-carboxylate] | – | – | 6.85 | PBMC 1 μM (% control) [2]: 9.7 % control |
| O=C(c1cccc(C(F)(F)F)c1Cl)N1CCc2c(ncn2-c2ccccn2)C1CF (stereo not drawn) [Example 32, (2-Chloro-3-(trifluoromethyl)phenyl)(4-(fluoromethyl)-1-(pyridin-2-yl)-6,7-dihydro-1H-imidazo[4,5-c]pyridin-5(4H)-yl)methanone] | 7.32 | 1.9 | – | – |
| O=C(OCC1c2ncn(-c3ccccc3)c2CCN1C(=O)c1cccc(C(F)(F)F)c1Cl)c1cccc(C(F)(F)F)c1Cl (stereo not drawn) [Example 36, (5-{[2-Chloro-3-(trifluoromethyl)phenyl]carbonyl}-1-phenyl-4,5,6,7-tetrahydro-1H-imidazo[4,5-c]pyridin-4-yl)methyl 2-chloro-3-(trifluoromethyl)benzoate] | – | – | 5.47 | – |
| CC1(C)c2ncn(-c3ccccc3)c2CCN1C(=O)c1cccc(C(F)(F)F)c1Cl [Example 53, 5-{[2-Chloro-3-(trifluoromethyl)phenyl]carbonyl}-4,4-dimethyl-1-phenyl-4,5,6,7-tetrahydro-1H-imidazo[4,5-c]pyridine] | 5.50 | – | – | PBMC 1 μM (% control) [2]: 99.0 % control |
| O=C(c1cccc(C(F)(F)F)c1Cl)N1CCc2c(nnn2-c2ncc(F)cn2)C1 [Example 64, 5-{[2-Chloro-3-(trifluoromethyl)phenyl]carbonyl}-1-(5-fluoropyrimidin-2-yl)-4,5,6,7-tetrahydro-1H-[1,2,3]triazolo[4,5-c]pyridine] | – | −9.2 | 7.64 | – |
| CC1c2ncn(-c3ccc(F)cn3)c2CCN1C(=O)c1ccc(F)cc1Cl (stereo not drawn) [Example 256, (2-chloro-4-fluorophenyl)(1-(5-fluoropyridin-2-yl)-4-methyl-6,7-dihydro-1H-imidazo[4,5-c]pyridin-5(4H)-yl)methanone] | – | 7.1 | 5.36 | – |
| CC1c2ncn(-c3ccc(F)cn3)c2CCN1C(=O)c1ccc(F)c(Cl)c1Cl (stereo not drawn) [Example 261, (2,3-dichloro-4-fluorophenyl)(1-(5-fluoropyridin-2-yl)-4-methyl-6,7-dihydro-1H-imidazo[4,5-c]pyridin-5(4H)-yl)methanone] | – | −3.1 | 7.53 | – |
| CC1c2ncn(-c3ccc(F)cn3)c2CCN1C(=O)c1cccc(C(F)(F)F)c1F (stereo not drawn) [Example 262, (2-fluoro-3-(trifluoromethyl)phenyl)(1-(5-fluoropyridin-2-yl)-4-methyl-6,7-dihydro-1H-imidazo[4,5-c]pyridin-5(4H)-yl)methanone] | 5.46 | −3.6 | – | – |
| Cc1c(C(=O)N2CCc3c(ncn3-c3ccc(F)cn3)C2C)cccc1C(F)(F)F (stereo not drawn) [Example 263, (1-(5-fluoropyridin-2-yl)-4-methyl-6,7-dihydro-1H-imidazo[4,5-c]pyridin-5(4H)-yl)(2-methyl-3-(trifluoromethyl)phenyl)methanone] | – | −1.6 | 7.76 | – |
| Cc1c(C(=O)N2CCc3c(ncn3-c3ccc(F)cn3)C2)cccc1C(F)(F)F [Example 312, (1-(5-fluoropyridin-2-yl)-6,7-dihydro-1H-imidazo[4,5-c]pyridin-5(4H)-yl)(2-methyl-3-(trifluoromethyl)phenyl)methanone] | – | 9.5 | 6.94 | – |
| O=C(c1ccc(Cl)cc1Cl)N1CCc2c(ncn2-c2ccc(F)cn2)C1 [Example 313, (2,4-dichlorophenyl)(1-(5-fluoropyridin-2-yl)-6,7-dihydro-1H-imidazo[4,5-c]pyridin-5(4H)-yl)methanone] | – | −5.4 | 6.06 | – |
| O=C(c1cccc(C(F)(F)F)c1F)N1CCc2c(ncn2-c2ccc(F)cn2)C1 [Example 314, (2-fluoro-3-(trifluoromethyl)phenyl)(1-(5-fluoropyridin-2-yl)-6,7-dihydro-1H-imidazo[4,5-c]pyridin-5(4H)-yl)methanone] | – | – | 5.45 | – |
| CC1c2n[nH]c(-c3cnccn3)c2CCN1C(=O)c1cccc(C(F)(F)F)c1Cl (stereo not drawn) [Example 438, (2-chloro-3-(trifluoromethyl)phenyl)(7-methyl-3-(pyrazin-2-yl)-4,5-dihydro-2H-pyrazolo[3,4-c]pyridin-6(7H)-yl)methanone] | – | – | – | pIC50 ([1]; Ca2+ flux, 250 μM BzATP, rat P2X7 1321N1 cells): 6.32; PBMC 10 μM (% control) ([2]; 10 μM test compound, LPS + Bz-ATP): −10.8 % control |

Now from value to compound, other results behind:

| pIC50 [1, 4] | PBMC 10 μM (% control) ([2]; test compound 10 μM) | pIC50 [3] | Structure (SMILES) | further results |
| --- | --- | --- | --- | --- |
| 4.79 | 42.4 | – | Cc1ccnc(-n2nnc3c2CCN(C(=O)c2ccnc(C(F)(F)F)c2F)[C@H]3C)c1 (single isomer, unassigned) [Example 357, (S*)-(3-fluoro-2-(trifluoromethyl)pyridin-4-yl)(4-methyl-1-(4-methylpyridin-2-yl)-6,7-dihydro-1H-[1,2,3]triazolo[4,5-c]pyridin-5(4H)-yl)methanone] | – |
| – | 8.1 | 5.26 | Cc1ccnc(-n2nnc3c2CCN(C(=O)c2cccc(OC(F)(F)F)c2)C3C)c1 (single isomer, unassigned) [Example 377, (S*)-(4-methyl-1-(4-methylpyridin-2-yl)-6,7-dihydro-1H-[1,2,3]triazolo[4,5-c]pyridin-5(4H)-yl)(3-(trifluoromethoxy)phenyl)methanone] | – |
| 7.25 | −2.7 | – | Cc1cc(-n2nnc3c2CCN(C(=O)c2cccc(C(F)(F)F)c2Cl)[C@@H]3C)ncc1F (single isomer, unassigned) [Example 382, (R*)-(2-chloro-3-(trifluoromethyl)phenyl)(1-(5-fluoro-4-methylpyridin-2-yl)-4-methyl-6,7-dihydro-1H-[1,2,3]triazolo[4,5-c]pyridin-5(4H)-yl)methanone] | – |
| 6.79 | 8.4 | – | Cc1cccc(-n2nnc3c2CCN(C(=O)c2cccc(C(F)(F)F)c2F)[C@H]3C)n1 (single isomer, unassigned) [Example 387, (S*)-(2-fluoro-3-(trifluoromethyl)phenyl)(4-methyl-1-(6-methylpyridin-2-yl)-6,7-dihydro-1H-[1,2,3]triazolo[4,5-c]pyridin-5(4H)-yl)methanone] | – |
| 6.40 | −2.0 | – | Cc1ccnc(-n2nnc3c2CCN(C(=O)c2ccnc(C(F)(F)F)c2F)C3C)c1 (stereo not drawn) [Example 355, (3-fluoro-2-(trifluoromethyl)pyridin-4-yl)(4-methyl-1-(4-methylpyridin-2-yl)-6,7-dihydro-1H-[1,2,3]triazolo[4,5-c]pyridin-5(4H)-yl)methanone] | – |
| 5.24 | 4.8 | – | Cc1cc(-n2nnc3c2CCN(C(=O)c2ccc(Cl)c(C(F)(F)F)c2)C3C)ncc1F (stereo not drawn) [Example 364, (4-chloro-3-(trifluoromethyl)phenyl)(1-(5-fluoro-4-methylpyridin-2-yl)-4-methyl-6,7-dihydro-1H-[1,2,3]triazolo[4,5-c]pyridin-5(4H)-yl)methanone] | – |
| – | 63.3 | < 5.00 | Cc1ccnc(-n2nnc3c2CCN(C(=O)c2cccc(OC(F)(F)F)c2)C3C)c1 (stereo not drawn) [Example 375, (4-methyl-1-(4-methylpyridin-2-yl)-6,7-dihydro-1H-[1,2,3]triazolo[4,5-c]pyridin-5(4H)-yl)(3-(trifluoromethoxy)phenyl)methanone] | – |
| 6.63 | 4.1 | – | Cc1cc(-n2nnc3c2CCN(C(=O)c2cccc(C(F)(F)F)c2Cl)C3C)ncc1F (stereo not drawn) [Example 381, (2-chloro-3-(trifluoromethyl)phenyl)(1-(5-fluoro-4-methylpyridin-2-yl)-4-methyl-6,7-dihydro-1H-[1,2,3]triazolo[4,5-c]pyridin-5(4H)-yl)methanone] | – |
| 7.24 | 12.4 | – | Cc1cccc(-n2nnc3c2CCN(C(=O)c2cccc(C(F)(F)F)c2F)C3C)n1 (stereo not drawn) [Example 385, (2-fluoro-3-(trifluoromethyl)phenyl)(4-methyl-1-(6-methylpyridin-2-yl)-6,7-dihydro-1H-[1,2,3]triazolo[4,5-c]pyridin-5(4H)-yl)methanone] | – |
| 5.64 | −18.8 | – | Cc1ccnc(-n2nnc3c2CCN(C(=O)c2cccc(Cl)c2C)C3C)c1 (stereo not drawn) [Example 388, (3-chloro-2-methylphenyl)(4-methyl-1-(4-methylpyridin-2-yl)-6,7-dihydro-1H-[1,2,3]triazolo[4,5-c]pyridin-5(4H)-yl)methanone] | – |
